Experimental data taken from patent US20230183179A1, “NOVEL CELL METABOLISM MODULATING COMPOUNDS AND USES THEREOF” (CRESCENTA BIOSCIENCES, priority 2020, published 2023).

Legend:
[1] = biological target: T1, His6 tagged human recombinant FABP4 (Homo sapiens, UniProt P15090); test: FABP4 TR-FRET assay: displacement of fluorescent fatty acid BODIPY FL C12; details: inhibition of BODIPY FL C12 binding to His6-FABP4; 1.2 μL of 1.085 mM compound in DMSO per well; triplicates, mean percent inhibition
T1 construct: purchased Cayman Chemicals 10009549
T1 sequence (P15090 whole entry): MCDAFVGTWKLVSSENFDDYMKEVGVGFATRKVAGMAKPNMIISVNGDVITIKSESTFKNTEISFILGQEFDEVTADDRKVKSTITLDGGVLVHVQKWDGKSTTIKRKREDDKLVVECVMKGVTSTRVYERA
Procedure, shortened: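 TR-FRET displacement of BODIPY FL C12 from His6-FABP4 bound by Tb-anti-His6 antibody, in Tris pH 7.4 buffer with γ-globulins, NP-40 and DTT; compound stock 1.085 mM in DMSO. Read after 10 min at room temperature as 520/615 nm ratio; mean % inhibition versus DMSO from triplicates.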

[2] = tested on: differentiated 3T3-L1 mouse adipocyte cells; test: Adipocyte glucose consumption in differentiated 3T3-L1 cells (colorimetric glucose assay of the medium); type: cell-based; details: 3T3-L1, 24 h, compound 10 μM, loss of glucose from culture medium, mean fold change (compound/DMSO)
Procedure, shortened: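 Differentiated 3T3-L1 mouse adipocytes (rosiglitazone/dexamethasone/IBMX/insulin induction, day 11) treated 24 h with compounds at 10 μM, 0.1% DMSO final. Medium glucose measured colorimetrically; consumption taken as glucose loss from medium versus cell-free control, expressed as mean fold change compound/DMSO ±SD.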

| Structure (SMILES) | inhibition at 1085 µM (stock) [1] [%] | fold induction at 10 µM [2] |
| --- | --- | --- |
| CCCCCCc1ccc2nc(N(C)CC(=O)O)cc(N3CCC(F)(F)C3)c2c1 [2-{[4-(3,3-difluoropyrrolidin-1-yl)-6-hexylquinolin-2-yl](methyl)amino}acetic acid] | 50.5 | 1.28 |
| CCCCCCc1ccc2nc(N3CCC(C)(C(=O)O)C3)cc(-c3ccccc3)c2c1 (stereo not drawn) [1-(6-hexyl-4-phenylquinolin-2-yl)-3-methylpyrrolidine-3-carboxylic acid] | 36.4 | 1.36 |
| CCCCc1ccc2nc(N(C)CC(=O)O)cc(-c3cccc(C(N)=O)c3)c2c1 [2-{[6-butyl-4-(3-carbamoylphenyl)quinolin-2-yl](methyl)amino}acetic acid] | 26.1 | 1.13 |
| CN(CC(=O)O)c1cc(-c2ccccc2)c2cc(CCc3nc4ccccc4o3)ccc2n1 [2-({6-[2-(1,3-benzoxazol-2-yl)ethyl]-4-phenylquinolin-2-yl}(methyl)amino)acetic acid] | 27.4 | 1.23 |
| CCCCCCc1ccc2nc(N(C)CC(=O)O)cc(Oc3cccc(F)c3)c2c1 [2-{[4-(3-fluorophenoxy)-6-hexylquinolin-2-yl](methyl)amino}acetic acid] | 98.8 | 1.21 |
| CCCCc1ccc2nc(N(C)C(C(=O)O)C(C)C)cc(-c3cccc(C#N)c3)c2c1 (stereo not drawn) [N-(6-butyl-4-(3-cyanophenyl)quinolin-2-yl)-N-methylvaline?] | 21 | 1.18 |
| CN(CC(=O)O)c1cc(-c2cccc(C(N)=O)c2)c2cc(Br)ccc2n1 [2-{[6-bromo-4-(3-carbamoylphenyl)quinolin-2-yl](methyl)amino}acetic acid] | 93.8 | 1.1 |
| CCCCCCCCc1ccc2nc(N(C)CC(=O)O)cc(-c3ccccc3)c2c1 [2-[methyl(6-octyl-4-phenylquinolin-2-yl)amino]acetic acid] | 99.3 | 1.52 |
| CCCCCc1ccc2nc(OCC(=O)O)cc(-c3cccc(C#N)c3)c2c1 [2-{[4-(3-cyanophenyl)-6-pentylquinolin-2-yl]oxy}acetic acid] | 10.6 | 1.01 |
| CN(CC(=O)NCC(=O)O)c1cc(-c2ccccc2)c2cc(Cl)ccc2n1 [2-{2-[(6-chloro-4-phenylquinolin-2-yl)(methyl)amino]acetamido}acetic acid] | 103 | 1.08 |
| CCCCCOc1ccc2nc(N(C)CC(=O)O)cc(-c3ccccc3)c2c1 [2-{methyl [6-(pentyloxy)-4-phenylquinolin-2-yl]amino}acetic acid] | 102 | 1.27 |
| CN(CC(=O)O)c1cc(-c2ccncc2)c2cc(CCc3cccnc3)ccc2n1 [2-[methyl({6-[2-(pyridin-3-yl)ethyl]-4-(pyridin-4-yl)quinolin-2-yl})amino]acetic acid] | 24.6 | 1.06 |
| CCCCCCc1ccc2nc(N(C)CC(=O)O)cc(-c3ccc(F)cc3)c2c1 [2-{[4-(4-fluorophenyl)-6-hexylquinolin-2-yl](methyl)amino}acetic acid] | 81 | 1.3 |
| CCCCc1ccc2nc(N(C)CC(=O)O)cc(-c3ccncc3)c2c1 [2-{[6-butyl-4-(pyridin-4-yl)quinolin-2-yl](methyl)amino}acetic acid] | 15 | 1.28 |
| CCCc1ccc2nc(OCC(=O)O)cc(-c3cccc(C#N)c3)c2c1 [2-([4-(3-cyanophenyl)-6-propylquinolin-2-yl]oxy}acetic acid] | 34.8 | 1.06 |
| CN(CC(=O)O)c1cc(-c2ccccc2)c2cc(CCN3CCCCC3)ccc2n1 [2-[methyl({4-phenyl-6-[2-(piperidin-1-yl)ethyl]quinolin-2-yl})amino]acetic acid] | < 0 | 0.96 |
| CCCCCCc1ccc2nc(N3CCCC(C(=O)O)C3)cc(-c3ccccc3)c2c1 (stereo not drawn) [1-(6-hexyl-4-phenylquinolin-2-yl)piperidine-3-carboxylic acid] | 88.3 | 1.16 |
| CCCCC(=O)Nc1ccc2nc(N(C)CC(=O)O)cc(-c3ccccc3)c2c1 [2-[methyl(6-pentanamido-4-phenylquinolin-2-yl)amino]acetic acid] | 28.7 | 0.98 |
| CCc1ccc2nc(N(C)CC(=O)O)cc(-c3cccc(C(N)=O)c3)c2c1 [2-{[4-(3-carbamoylphenyl)-6-ethylquinolin-2-yl](methyl)amino}acetic acid] | 78 | 1.07 |
| CN(CC(=O)O)c1cc(-c2ccccc2)c2cc(CCC3CNc4ccccc4N3)ccc2n1 (stereo not drawn) [2-[methyl({4-phenyl-6-[2-(1,2,3,4-tetrahydroquinoxalin-2-yl)ethyl]quinolin-2-yl})amino]acetic acid] | 14.9 | 1.26 |
| CN(CCc1ccc2nc(N(C)CC(=O)O)cc(-c3ccccc3)c2c1)c1ccccc1 [2-[methyl(6-{2-[methyl(phenyl)amino]ethyl}-4-phenylquinolin-2-yl)amino]acetic acid] | 55.9 | 1.17 |
| CCCc1cccc(-c2ccc3nc(N(C)CC(=O)O)cc(-c4ccccc4)c3c2)c1 [2-{methyl[4-phenyl-6-(3-propylphenyl)quinolin-2-yl]amino}acetic acid] | 61.2 | 1.07 |
| O=C(O)COc1cc(-c2ccccc2)c2cc(Cl)ccc2n1 [2-[(6-chloro-4-phenylquinolin-2-yl)oxy]acetic acid] | 34.4 | 1.1 |
| COc1ccc(CCc2ccc3nc(N(C)CC(=O)O)cc(-c4ccccc4)c3c2)cc1 [2-({6-[2-(4-methoxyphenyl)ethyl]-4-phenylquinolin-2-yl}(methyl)amino)acetic acid] | 15 | 1.26 |
| CCCCCCCCc1ccc2nc(N(C)CC(=O)O)cc(Oc3ccc(F)cc3)c2c1 [2-{[4-(4-fluorophenoxy)-6-octylquinolin-2-yl](methyl)amino}acetic acid] | 78.7 | 1.41 |
| N#Cc1cccc(-c2cc(OCC(=O)O)nc3ccc(Br)cc23)c1 [2-{[6-bromo-4-(3-cyanophenyl)quinolin-2-yl]oxy}acetic acid] | 19.9 | 0.99 |
| CCCc1ccc2nc(OCC(=O)O)cc(-c3ccccc3)c2c1 [2-[(4-phenyl-6-propylquinolin-2-yl)oxy]acetic acid] | 33.8 | 0.99 |
